Data published in patent EP4659764A1, “LINKER DRUG, AND PREPARATION METHOD AND USE OF ANTIBODY-DRUG CONJUGATE THEREOF” (Lepu Biopharma Co., Ltd., priority 2023, dated 2024).

Test system: SKBR3 (breast cancer cell line)
Assay: In vitro cell killing activity of ADCs, SKBR3
Assay type: cell-based
Conditions: Homo sapiens, SK-BR-3, incubation 72 hours, ADC DAR 8.0
Description: Referring to the process of Example 13, the linker-drug conjugate mc-AAN-Exatecan was conjugated to a HER2 antibody, an EGFR antibody, and a non-specific binding antibody (Anti-HEL) respectively to prepare the corresponding ADCs. […] The cell killing activity was detected.

SMILES: CC[C@@]1(O)C(=O)OCc2c1cc1n(c2=O)Cc2c-1nc1cc(F)c(C)c3c1c2[C@@H](N)CC3 [Extecan, Exatecan]
- IC50: 2.02 nM
